Legend:
[1] = system: normal human dermal fibroblasts (NHDF); assay: Transcriptomic study, mRNA expression by RT-qPCR (Taqman); format: cell-based; conditions: 24 h treatment, vs untreated
Procedure: The mRNA expression was quantified after 24 h of NHDF treatment with both Gal and C-Gal.
mRNA extraction was realized according to the provider recommendations (Qiagen). Briefly, lysis buffer RLT-Plus was added on the cell pellet and the homogenous lysate was transferred in a column. The eluate was mixed with one volume 70° ethanol and was transferred in a pink <<RNeasy>> column. The column was washed with buffer. Elution was realized with RNase-free water and the RNA quantitation was done by D.O. 260 nm, 280 nm, 320 nm measurements (Biotek, Cytation3 & Take3 Plate) with “Nucleic Acid Quantification” software application. mRNA quality was checked using a fragment analyser (Advanced Analytical). Then, mRNA reverse transcription allowing the obtention of cDNA templates was performed on a thermal cycler (Bio-Rad). cDNA templates were used to perform the qPCR. For the transcriptomic study, it was used Biorad predesigned plates for ECM components, antioxidants genes, skin homeostasis. Then, the data generated allowed the automatic calculation using Bio-Rad CFX manager of mRNA expression fold change and p values in comparison to untreated condition.
All data are statistically significant compared to control condition (p value <0.05).

NHEK [2] = assay: Cell protection against UVB irradiation, bright-field cell morphology observation; format: cell-based, human; conditions: UVB 30 mJ/cm^2, preventive/curative/combined, observed after 24 hours, data not shown
Procedure: (§1) In the following studies, the capabilities of Gal and C-Gal to protect skin cells (NHEK and NHDF) against various stress agents such as UV irradiations (UVB and UVA), or environmental factors (humidity and temperature) were assessed.
Briefly, using a bright-field imaging microscope, it was studied the effect of the UVB irradiation on NHEK's morphology in various experimental conditions in presence or not of Gal and C-Gal: • “Preventive” condition: Gal or C-Gal was applied on NHEK during 24 hours before UVB irradiation (30 mJ/cm^2), and the morphology of the cells was observed after 24 hours, • “Curative” condition: Gal or C-Gal was applied after UVB irradiation, and the morphology of the cells was observed after 24 hours, • Combined condition “preventive and curative”: Gal or C-Gal was applied before and after UVB irradiation and the morphology of the cells was observed after 24 hours.

NHDF = assay: Cell protection against UVA irradiation, bright-field cell morphology observation; format: cell-based, human; conditions: UVA 10 J/cm^2, curative, observed after 24 hours, data not shown
Procedure: as §1
The same experiments as described above were repeated by using UVA irradiation on NHDF in the following condition: • “Curative” condition: Gal or C-Gal was applied after UVA irradiation (10 J/cm^2), and the morphology of the cells were observed after 24 hours.

NHEK [3] = assay: Cell protection against environmental stress (heat, hydric), bright-field cell morphology observation; format: cell-based, human; conditions: heat stress 37 to 44° C. 30 min, hydric stress 90% to 45% relative humidity, or both, data not shown
Procedure: as §1
Finally, the effect of environmental stress on cell morphology was studied in NHEK treated with and without Gal or C-Gal (using a bright-field imaging microscope). The environmental stress applied were either a heat stress (increase in temperature from 37° C. to 44° C. during 30 min), or an hydric stress “modulation of relative humidity from 90% to 45%” or a combination of both stresses “heat plus hydric stresses”.

HSP27 = HSP27 protein expression by immunostaining; format: cell-based, human; conditions: NHDF, 24 h treatment, basal (non stressed) condition; FIG. 5
Procedure: NHDF were treated with Gal or C-Gal for 24 h (treated cells). […] Pictures were realized with a Nikon microscope (Eclipse Ti2). The quantification of HSP27 was measured by image analysis of fluorescence intensity per cell using Image J software. The statistical analysis (Dunnett) was realized with Minitab software (*p<0.05 compared to control). Results were obtained by performing three independent assays.

## OC[C@H]1O[C@H](O[C@@H]2[C@@H](O)[C@H](O)[C@@H](O)[C@H](O)[C@@H]2O)[C@H](O)[C@@H](O)[C@H]1O [Gal, 3-O-α-D-galactopyranosyl-D-myo-inositol]
[1]; p value <0.05, FIG. 2
  ECM genes and proteins expressions (COL5A1, ELN, SDC4, VCAN, LAMC2, LUM, ITGA1): modulation
[1]; p value <0.05, FIG. 3
  antioxidant genes expression (NQO1, HMOX1, GPX1, G6PD): modulated
[1]; p value <0.05, FIG. 4
  growth factors gene expression (TGF Beta 1 and NGF): upregulation
  heat shock proteins gene expression (HSPA1A and HSP90AA): upregulation
  mRNA expressions of PCNA, MKi67 and GADD45A (DNA repair and cell proliferation): upregulation
NHEK [2]
  cell morphology: quite regular and expected cells morphology
  cell number vs stress condition alone: more cells are present
NHDF
  cell morphology: quite regular and expected cells morphology
  cell number vs stress condition alone: more cells are present
NHEK [3]
  cell morphology: quite regular and expected cells morphology
HSP27
  HSP27 expression (fluorescence intensity per cell): clear stimulation

Reference: US20250041194A1, “COMPOSITION COMPRISING GALACTINOL AND USE THEREOF” (Clariant International Ltd, priority 2021, published 2025)
